{"source": "paper PMC3880643", "about": "(Journal of medicinal chemistry, 2013)", "key": {"[1]": {"assay": "In vitro metabolic stability in mouse liver microsomes"}, "[2]": {"test_system": "13 other methyltransferases", "format": "biochemical", "conditions": "read-out: IC50 against 13 other methyltransferases"}, "PRC2 – EZH2": {"biological_target": "PRC2 – EZH2 (Homo sapiens, UniProt Q15910)", "sequence (Q15910 whole entry)": "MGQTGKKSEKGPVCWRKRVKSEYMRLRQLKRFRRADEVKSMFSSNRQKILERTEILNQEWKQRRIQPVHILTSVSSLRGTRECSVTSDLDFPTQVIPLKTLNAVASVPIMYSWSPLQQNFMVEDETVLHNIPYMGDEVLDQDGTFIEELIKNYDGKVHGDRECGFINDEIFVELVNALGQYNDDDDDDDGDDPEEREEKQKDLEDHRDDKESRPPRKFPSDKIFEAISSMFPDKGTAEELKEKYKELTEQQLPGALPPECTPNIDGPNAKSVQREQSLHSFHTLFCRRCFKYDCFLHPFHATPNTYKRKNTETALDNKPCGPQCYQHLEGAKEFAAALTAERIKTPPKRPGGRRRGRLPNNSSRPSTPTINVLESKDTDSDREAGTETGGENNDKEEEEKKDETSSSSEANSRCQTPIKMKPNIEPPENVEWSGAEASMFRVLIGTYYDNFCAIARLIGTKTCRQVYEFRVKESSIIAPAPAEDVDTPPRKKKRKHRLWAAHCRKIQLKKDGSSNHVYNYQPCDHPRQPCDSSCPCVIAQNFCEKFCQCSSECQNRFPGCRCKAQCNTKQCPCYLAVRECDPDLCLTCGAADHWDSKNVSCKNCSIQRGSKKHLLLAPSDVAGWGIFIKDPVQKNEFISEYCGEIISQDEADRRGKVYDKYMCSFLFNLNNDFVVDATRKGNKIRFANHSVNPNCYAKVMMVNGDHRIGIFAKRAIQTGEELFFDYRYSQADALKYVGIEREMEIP", "sequence (O75530 whole entry, further chain)": "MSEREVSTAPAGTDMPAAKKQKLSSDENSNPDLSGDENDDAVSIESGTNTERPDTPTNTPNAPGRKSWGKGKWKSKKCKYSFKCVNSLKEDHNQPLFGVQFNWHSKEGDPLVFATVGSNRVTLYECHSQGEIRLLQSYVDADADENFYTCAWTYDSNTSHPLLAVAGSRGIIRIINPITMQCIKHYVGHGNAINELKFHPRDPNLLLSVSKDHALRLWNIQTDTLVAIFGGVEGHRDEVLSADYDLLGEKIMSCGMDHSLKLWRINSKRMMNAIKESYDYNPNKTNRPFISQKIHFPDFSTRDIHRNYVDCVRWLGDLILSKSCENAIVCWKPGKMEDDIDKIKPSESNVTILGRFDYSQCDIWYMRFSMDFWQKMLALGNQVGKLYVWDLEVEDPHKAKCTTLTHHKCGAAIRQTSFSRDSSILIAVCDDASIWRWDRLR", "sequence (Q15022 whole entry, further chain)": "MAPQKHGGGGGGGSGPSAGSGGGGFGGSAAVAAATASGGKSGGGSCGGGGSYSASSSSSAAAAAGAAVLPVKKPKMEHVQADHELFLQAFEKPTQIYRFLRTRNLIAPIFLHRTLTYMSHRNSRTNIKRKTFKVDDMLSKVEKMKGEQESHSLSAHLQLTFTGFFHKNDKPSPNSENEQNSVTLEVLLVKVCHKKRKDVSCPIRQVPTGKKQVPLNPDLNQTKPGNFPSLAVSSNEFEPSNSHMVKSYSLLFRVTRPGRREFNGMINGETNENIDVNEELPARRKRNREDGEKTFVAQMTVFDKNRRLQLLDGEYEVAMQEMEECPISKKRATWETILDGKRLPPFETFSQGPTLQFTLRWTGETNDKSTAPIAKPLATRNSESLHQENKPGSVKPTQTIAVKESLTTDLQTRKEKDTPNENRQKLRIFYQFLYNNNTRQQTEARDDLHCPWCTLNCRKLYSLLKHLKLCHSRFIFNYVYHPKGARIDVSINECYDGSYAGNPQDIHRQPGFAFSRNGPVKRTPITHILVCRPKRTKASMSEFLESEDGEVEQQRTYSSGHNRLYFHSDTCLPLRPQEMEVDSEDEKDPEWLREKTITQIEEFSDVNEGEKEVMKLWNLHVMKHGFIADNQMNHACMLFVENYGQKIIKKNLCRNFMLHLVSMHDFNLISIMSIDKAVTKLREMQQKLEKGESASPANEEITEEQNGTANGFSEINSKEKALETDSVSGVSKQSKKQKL", "assay": "biochemical"}, "[3]": {"test_system": "panel of 50 representative kinases", "assay": "Kinase selectivity panel", "format": "biochemical", "conditions": "at 10,000 nM"}, "[4]": {"test_system": "44 GPCRs, transporters, and ion channels", "format": "binding"}, "G9a [5]": {"biological_target": "T1, G9a (Homo sapiens, UniProt Q96KQ7)", "T1 sequence (Q96KQ7 1-1210)": "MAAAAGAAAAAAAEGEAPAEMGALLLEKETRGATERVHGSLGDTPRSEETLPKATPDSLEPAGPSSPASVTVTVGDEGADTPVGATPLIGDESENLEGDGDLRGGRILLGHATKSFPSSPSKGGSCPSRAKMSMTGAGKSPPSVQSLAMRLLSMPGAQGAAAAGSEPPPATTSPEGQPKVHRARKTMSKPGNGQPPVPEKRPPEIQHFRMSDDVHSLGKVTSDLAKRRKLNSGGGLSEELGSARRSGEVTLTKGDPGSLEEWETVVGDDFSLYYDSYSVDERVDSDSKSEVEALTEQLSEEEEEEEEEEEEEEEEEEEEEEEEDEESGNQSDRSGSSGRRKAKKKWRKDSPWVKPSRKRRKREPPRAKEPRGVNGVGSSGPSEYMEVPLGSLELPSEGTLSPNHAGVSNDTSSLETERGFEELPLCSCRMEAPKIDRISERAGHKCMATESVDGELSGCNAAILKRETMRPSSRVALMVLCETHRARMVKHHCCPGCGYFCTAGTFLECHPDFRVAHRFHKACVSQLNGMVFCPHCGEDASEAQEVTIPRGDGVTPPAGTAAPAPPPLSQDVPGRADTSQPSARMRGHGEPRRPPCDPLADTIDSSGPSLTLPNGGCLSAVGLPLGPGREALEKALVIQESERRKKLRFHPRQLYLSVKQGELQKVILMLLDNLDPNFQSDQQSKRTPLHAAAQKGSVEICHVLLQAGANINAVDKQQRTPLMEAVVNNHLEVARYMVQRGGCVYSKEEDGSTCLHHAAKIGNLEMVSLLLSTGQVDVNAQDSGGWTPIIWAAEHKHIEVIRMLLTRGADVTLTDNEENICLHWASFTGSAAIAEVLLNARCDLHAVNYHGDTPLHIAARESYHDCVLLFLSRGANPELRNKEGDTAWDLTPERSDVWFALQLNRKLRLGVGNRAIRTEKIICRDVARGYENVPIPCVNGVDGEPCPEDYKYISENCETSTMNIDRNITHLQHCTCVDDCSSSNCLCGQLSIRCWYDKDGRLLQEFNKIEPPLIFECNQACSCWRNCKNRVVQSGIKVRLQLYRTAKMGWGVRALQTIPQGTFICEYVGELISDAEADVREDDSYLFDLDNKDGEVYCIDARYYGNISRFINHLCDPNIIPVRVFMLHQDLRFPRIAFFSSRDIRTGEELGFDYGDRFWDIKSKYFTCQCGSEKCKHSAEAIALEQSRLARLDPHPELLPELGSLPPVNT", "assay": "Competition of inhibitor with cofactor SAM", "format": "biochemical", "conditions": "Km app of SAM versus inhibitor concentration"}, "[6]": {"assay": "Resazurin cell toxicity assay", "format": "cell-based", "conditions": "human, U2OS cells"}, "[7]": {"assay": "Resazurin cell toxicity assay", "format": "cell-based", "conditions": "human, PANC-1 cells, Cell Toxicity EC50, PANC-1 cells"}, "PANC-1 cells": {"test_system": "PANC-1 cells", "assay": "Clonogenicity assay", "format": "cell-based", "conditions": "2 weeks, 0.5 or 1 µM"}, "MDA-MB-231 cells [8]": {"test_system": "MDA-MB-231 cells", "assay": "Clonogenicity assay", "format": "cell-based", "conditions": "2 weeks, 0.5 or 1 µM"}, "G9a [9]": {"biological_target": "T1, G9a", "conditions": "Km app of peptide versus inhibitor concentration"}, "Resazurin": {"assay": "Resazurin", "conditions": "human"}, "MDA-MB-231 cells [10]": {"test_system": "MDA-MB-231 cells", "assay": "Resazurin", "conditions": "MDA-MB-231 cells"}}, "data": [{"smiles": "COc1cc2c(NC3CCN(C(C)C)CC3)nc(C3CCCCC3)nc2cc1OCCCN1CCCC1", "note": "[Compound 5, reference compound]", "values": [{"measurement": "CLint", "setting": "[1]", "result": 1.0, "unit": "mL/min/g liver"}]}, {"smiles": "COc1cc2c(NC3CCN(C(C)C)CC3)nc(N3CCC(F)(F)CC3)nc2cc1OCCCN1CCCC1", "note": "[Compound 7, 2-(4,4-Difluoropiperidin-1-yl)-N-(1-isopropylpiperidin-4-yl)-6-methoxy-7-(3-(pyrrolidin-1-yl)propoxy)quinazolin-4-amine]", "values": [{"measurement": "IC50", "setting": "[2]", "result": "> 50", "unit": "µM"}, {"measurement": "IC50", "setting": "PRC2 – EZH2", "result": "> 5", "unit": "µM"}, {"measurement": "Inhibition of panel of 50 representative kinases", "setting": "[3]", "result": "less than 20%"}, {"measurement": "Inhibition against 5 targets of the 44-target panel", "setting": "[4]", "result": "> 50", "unit": "%"}, {"measurement": "Inhibition against 39 targets of the 44-target panel", "setting": "[4]", "result": "less than 50%"}, {"measurement": "Mechanism of action versus cofactor SAM", "setting": "G9a [5]", "result": "non-competitive with the cofactor SAM"}, {"measurement": "EC50 at 48 h", "setting": "[6]", "result": "> 3", "unit": "µM"}, {"measurement": "EC50 at 48 h", "setting": "[7]", "result": "> 3", "unit": "µM"}, {"measurement": "Effect on clonogenicity", "setting": "PANC-1 cells", "result": "reduced clonogenicity in PANC-1 cells in a concentration-dependent manner"}, {"measurement": "Effect on clonogenicity", "setting": "MDA-MB-231 cells [8]", "result": "no effect on clonogenicity"}, {"measurement": "Mechanism of action versus peptide substrate", "setting": "G9a [9]", "result": "competitive with the peptide substrate"}, {"measurement": "CLint", "setting": "[1]", "result": 0.5, "unit": "mL/min/g liver"}]}, {"smiles": "COc1cc2c(NC3CCN(C(C)C)CC3)nc(N3CCOCC3)nc2cc1OCCCN1CCCC1", "note": "[Compound 13, N-(1-Isopropylpiperidin-4-yl)-6-methoxy-2-morpholino-7-(3-(pyrrolidin-1-yl)propoxy)quinazolin-4-amine]", "values": [{"measurement": "CLint", "setting": "[1]", "result": 0.7, "unit": "mL/min/g liver"}]}, {"smiles": "COc1cc2c(NC3CCN(C(C)C)CC3)nc(N3CC(F)(F)C(F)(F)C3)nc2cc1OCCCN1CCCC1", "note": "[Compound 15, N-(1-Isopropylpiperidin-4-yl)-6-methoxy-7-(3-(pyrrolidin-1-yl)propoxy)-2-(3,3,4,4-tetrafluoropyrrolidin-1-yl)quinazolin-4-amine]", "values": [{"measurement": "CLint", "setting": "[1]", "result": "< 0.5", "unit": "mL/min/g liver"}]}, {"smiles": "COc1cc2c(NC3CCN(C(C)C)CC3)nc(N3CCCCC3)nc2cc1OCCCN1CCCC1", "note": "[Compound 16]", "values": [{"measurement": "EC50 at 48 h", "setting": "Resazurin", "result": 7, "unit": "µM"}]}, {"smiles": "COc1cc2c(NC3CCN(C(C)C)CC3)nc(N3CCCCCC3)nc2cc1OCCCN1CCCC1", "note": "[Compound 17]", "values": [{"measurement": "EC50", "setting": "MDA-MB-231 cells [10]; read-out: Cell Toxicity EC50, 48 h", "result": 5.7, "unit": "µM"}]}, {"smiles": "COc1cc2c(NC3CCN(C4CC4)CC3)nc(N3CCS(=O)(=O)CC3)nc2cc1OCCCN1CCCC1", "note": "[Compound 19, 4-(4-((1-Cyclopropylpiperidin-4-yl)amino)-6-methoxy-7-(3-(pyrrolidin-1-yl)propoxy)quinazolin-2-yl)thiomorpholine 1,1-dioxide]", "values": [{"measurement": "EC50 at 48 h", "setting": "Resazurin", "result": "> 50", "unit": "µM"}]}, {"smiles": "COc1cc2c(NC3CCN(C(C)C)CC3)nc(C3CCOCC3)nc2cc1OCCCN1CCCC1", "note": "[Compound 22, N-(1-Isopropylpiperidin-4-yl)-6-methoxy-7-(3-(pyrrolidin-1-yl)propoxy)-2-(tetrahydro-2H-pyran-4-yl)quinazolin-4-amine]", "values": [{"measurement": "EC50 at 48 h", "setting": "Resazurin", "result": "> 50", "unit": "µM"}, {"measurement": "Tox/function Ratio", "setting": "MDA-MB-231 cells [10]; toxicity EC50 divided by functional IC50", "result": "> 130"}, {"measurement": "CLint", "setting": "[1]", "result": 4.7, "unit": "mL/min/g liver"}]}]}
